Reference: patent publication US10274488B2, “Glycan arrays on PTFE-like aluminum coated glass slides and related methods” (Academia Sinica, priority 2008, dated 2019)

Tested on: cellulase from T. viride
Experiment: Enzymatic hydrolysis in solution with cellulase from T. viride, MS-TOF readout
Assay type: biochemical, Trichoderma viride
Details: reaction in solution, pH 5
Description: Enzymatic hydrolysis of the immobilized poly-fluorinated cellobiose 8 (see FIG. 14) was first conducted in situ on the phosphonic acid slide surface. Three commercially available cellulases, Aspergillus niger (A. niger), Trichoderma reesei (T. reesei), and Trichoderma viride (T. viride) were prepared separately at 5 U/mL in a sodium acetate (25 mM) buffer solution (pH 5) and loaded onto the functionalized slide which has been divided into 16 wells using Fast Frame reaction chambers. For comparison, an aliquot of enzyme solution (100 μL) was added to the solution of fluorinated cellobiose (100 μL of 0.5 mM) in eppendorfs to carry out the enzymatic hydrolysis reactions in solution. After the reaction, it was transferred to the empty wells of the same slide. Each well was rinsed separately three times with de-ionized water and the slide was dried again under high vacuum before subjecting to MS-TOF analysis.
Under MS-TOF analysis, the clean background baseline allowed calculation of the percentage of hydrolyzed components for each sample. As shown in the MS-TOF results in FIG. 20, percentages of hydrolyzed products are calculated from the peak intensities of each spectrum. According to implementations of experimental data shown in FIG. 20, MS-TOF data of enzymatic hydrolysis of poly-fluorinated cellobiose in solution in FIG. 20A and immobilized on PTFE-like ACG slide in FIG. 20B. The control are the same experimental conditions run without enzymes in (a); (b), (c), and (d) are experimental conditions with the cellulase proteins from A. niger (b), T. reesei (c), and T. viride (d).
Cellulase was prepared (5 U/mL in 25 mM pH 5.05 NaOAc buffer solution). Substrate was also dissolved in NaOAc buffer solution (25 mM, pH 5.05) to give 0.5 mM substrate solution. Add 100 uL cellulase solution to 100 uL substrate solution in eppendorf to have a 2.5 U/mL cellulase solution with 0.25 mM substrate. This solution was incubated in 37° C. for 18 hours. Add 100 μL incubated solution onto the slide loaded in FAST® Frame. Put the slide in dry box to remove the water, and then use high vacuum to remove trace water. 100 μL water was used to rinse each well of the FAST® Frame multi-slide plate to solve and remove the salt of the buffer solution. Remove any residual water on the plate by high vacuum and then analyzed the slide by MALDI-TOF Ultra-Flex II.

Biose (un-hydrolyzed cellobiose), percentage of hydrolyzed pattern: 3%
F-tail, percentage of hydrolyzed pattern: 38%
Glucose, percentage of hydrolyzed pattern: 58%
Triose, percentage of hydrolyzed pattern: 0/0%
SMILES: O=C(NCCCCCO[C@@H]1O[C@H](CO)[C@@H](O[C@@H]2O[C@H](CO)[C@@H](O)[C@H](O)[C@H]2O)[C@H](O)[C@H]1O)OCCCC(F)(F)C(F)(F)C(F)(F)C(F)(F)C(F)(F)C(F)(F)C(F)(F)C(F)(F)F [Compound 8, [(4,4,5,5,6,6,7,7,8,8,9,9,10,10,11,11,12,12,12-nonadecafluorododecoxycarbonyl-amino)pentyl] ß-D-cellobioside]
